Laboratory results from PMC9435431, “Novel chemical entities inhibiting Mycobacterium tuberculosis growth identified by phenotypic high-throughput screening” (Scientific Reports, 2022).
Values after ≈ are worked out from the molar mass of the structure shown. Counter-ions that a name gives are not always drawn. Like-named read-outs stand apart in the source and are kept apart here.

Test system: wild-type M. tuberculosis
Experiment: microbe, parasite or virus in culture
Type: cell-based, Mycobacterium tuberculosis
[1] = Mycobacterium tuberculosis, 120 h, read-out: MIC
[2] = Mycobacterium tuberculosis, read-out: MIC

Compound | MIC [1] [µM] | anti-tubercular activity (in words) | further results
Cc1nc(-c2ccccn2)nc(NCCNc2ccc(C(F)(F)F)cn2)c1Cl [APDP-2] |  |  | IC90 (Mycobacterium tuberculosis): 33 µM
CN1CCC(N2CCC(c3ccccc3)CC2)CC1 [Molecule 4PP-27, 1'-Methyl-4-phenyl-1,4'-bipiperidine] | > 20 |  | MIC [2]: > 20 µM
CC(=O)NCC1(c2ccccc2)CCN(CC2CCCCC2)CC1 [Molecule 4PP-38, N-[[1-(Cyclohexylmethyl)-4-phenyl-4-piperidyl]methyl]acetamide; 2,2,2-trifluoroacetic acid] | > 20 |  | 
CC(C)(C)CC(C)(C)N1CCC(c2ccc(C(C)(C)C)cc2)CC1 [Molecule 4PP-43, 4-(4-t-Butyl-phenyl)-1-(1,1,3,3-tetramethyl-butyl)-piperidine] | 5.9 (≈ 1.94 µg/mL) |  | MIC: 5.2 ± 1.9 µM (≈ 1.71 µg/mL)
CC1C(CNC(=O)Nc2ccccc2)CC2CC1C2(C)C (stereo not shown) [HBU-2] |  |  | IC90 (Mycobacterium tuberculosis): 4.9 µM
CC(C)(C)CC(C)(C)N1CC=C(c2c[nH]c3ccccc23)CC1 [Molecule 4PP-47, 3-(1-(2,4,4-Trimethylpentan-2-yl)-1,2,3,6-tetrahydropyridin-4-yl)-1H-indole] | 9.6 ± 2.2 (≈ 2.98 µg/mL) |  | MIC [2]: 9.6 µM (≈ 2.98 µg/mL)
O=C(N1CCCCC1)N1CCC(c2ccccc2)CC1 [Molecule 4PP-12, (4-Phenylpiperidin-1-yl)(piperidin-1-yl)methanone] | > 20 | lost activity | 
Cc1nc(-c2ccccn2)nc(NCc2ccccc2)c1Cl [APDP-3] |  |  | IC90 (Mycobacterium tuberculosis): 6.3 µM
CC(=O)c1ccc(NC(=O)NC(C)C23CC4CC(CC(C4)C2)C3)cc1 (stereo not shown) [HBU-3] |  |  | IC90 (Mycobacterium tuberculosis): 29 µM
c1ccc(C2CCN(CC3CCCCC3)CC2)cc1 [Molecule 4PP-4, 1-Cyclohexylmethyl-4-phenyl-piperidine] | 21 ± 9 (≈ 5.41 µg/mL) |  | MIC [2]: 21 µM (≈ 5.41 µg/mL)
CN(C)C1CCC(N2CCC(c3ccccc3)CC2)CC1 (stereo not shown) [Molecule 4PP-21, N,N-dimethyl-4-(4-phenylpiperidin-1-yl)cyclohexan-1-amine] | > 20 | loss of activity | 
Cc1cc(C)n(-c2nc(N)cc(-c3cccc(F)c3)n2)n1 [PZP-2] |  |  | IC90 (Mycobacterium tuberculosis): 7.4 µM
CC(C)(C)CC(=O)N1CCC(c2ccccc2)CC1 [Molecule 4PP-14, 3,3-Dimethyl-1-(4-phenylpiperidin-1-yl)butan-1-one] | > 20 | did not furnish activity | 
O=S(=O)(C1CCCCC1)N1CCC(c2ccccc2)CC1 [Molecule 4PP-9, 1-(Cyclohexylsulfonyl)-4-phenylpiperidine] | > 20 | lost activity | 
CC(C)(C)NC(=O)N1CCC(c2ccc(C(C)(C)C)cc2)CC1 [Molecule 4PP-7, N-(t-Butyl)-4-(4-(tert-butyl)phenyl)piperidine-1-carboxamide] | > 20 | loss of activity | 
OC1CCC(N2CCC(c3ccccc3)CC2)CC1 (stereo not shown) [Molecule 4PP-23, 4-(4-Phenylpiperidin-1-yl)cyclohexan-1-ol] | > 20 | loss of activity | 
c1ccc(C2CCN(Cc3ccc4c(c3)OCO4)CC2)cc1 [Molecule 4PP-42, 1-(Benzo[d][1,3]dioxol-5-ylmethyl)-4-phenylpiperidine] | > 20 | inactive | 
O=C(C1CCCCC1)N1CCC(c2ccccc2)CC1 [Molecule 4PP-10, Cyclohexyl(4-phenylpiperidin-1-yl) methanone] | > 20 | lost activity | 

Compound | MIC [1] [µM] | anti-tubercular activity (in words) | further results
COC(=O)C1CCC(N2CCC(c3ccccc3)CC2)CC1 (stereo not shown) [Molecule 4PP-22, Methyl 4-(4-phenylpiperidin-1-yl)cyclohexane-1-carboxylate] | > 20 | loss of activity | 
CC(C)(C)c1ccc(C2CCN(C(=O)N3CCCCC3)CC2)cc1 [Molecule 4PP-8, (4-(4-(t-Butyl)phenyl)piperidin-1-yl)(piperidin-1-yl)methanone] | > 20 | loss of activity | 
CC(NC(=O)Nc1nc(-c2ccc(Cl)cc2)cs1)C1CC2C=CC1C2 (stereo not shown) [HBU-5] |  |  | IC90 (Mycobacterium tuberculosis): 13 µM
CN(C)C1CCC(N2CCC(c3ccc(C(C)(C)C)cc3)CC2)CC1 (stereo not shown) [Molecule 4PP-17, 4-(4-(4-(t-Butyl)phenyl)piperidin-1-yl)-N,N-dimethylcyclohexan-1-amine] | > 20 | detrimental to the activity | 
Clc1cccc(C2CCN(CC3CCCCC3)CC2)c1 [Molecule 4PP-29, 4-(3-Chlorophenyl)-1-(cyclohexylmethyl)piperidine; 2,2,2-trifluoroacetic acid] | 4.1 (≈ 1.2 µg/mL) |  | MIC [2]: 4.1 µM (≈ 1.2 µg/mL)
CC(C)(C)c1ccc(C2CCN(C3CCCCC3)CC2)cc1 [Molecule 4PP-16, 4-(4-t-Butyl-phenyl)-1-cyclohexyl-piperidine, hydrochloride] | 2.7 ± 0.8 |  | MIC [2]: 2.7 µM
CC(C)(C)c1ccc(C2CCN(C(=O)C3CCCCC3)CC2)cc1 [Molecule 4PP-6, (4-(4-(t-Butyl)phenyl)piperidin-1-yl)(cyclohexyl)methanone] | > 20 | lost whole-cell activity | 
Brc1cccc(C2CCN(CC3CCCCC3)CC2)c1 [Molecule 4PP-28, 4-(3-Bromophenyl)-1-(cyclohexylmethyl)piperidine; 2,2,2-trifluoroacetic acid] | 2.8 ± 0.7 (≈ 0.942 µg/mL) |  | MIC [2]: 2.8 µM (≈ 0.942 µg/mL)
CC(C)(C)CC(C)(C)N1CC=C(c2c[nH]c3ncccc23)CC1 [Molecule 4PP-45, 3-(1-(2,4,4-Trimethylpentan-2-yl)-1,2,3,6-tetrahydropyridin-4-yl)-1H-pyrrolo[2,3-b]pyridine] | > 20 | inactive | 
N#CC1(c2ccccc2)CCN(CC2CCCCC2)CC1 [Molecule 4PP-37, 1-(Cyclohexylmethyl)-4-phenyl-piperidine-4-carbonitrile; 2,2,2-trifluoroacetic acid] | > 20 |  | 
CN1CCC(N2CCC(c3ccc(C(C)(C)C)cc3)CC2)CC1 [Molecule 4PP-25, 4-(4-(tert-Butyl)phenyl)-1'-methyl-1,4'-bipiperidine] | > 20 |  | MIC [2]: > 20 µM
COc1ccc(-c2cc(N)nc(-n3nc(C)cc3C)n2)cc1 [PZP-1] |  |  | IC90 (Mycobacterium tuberculosis): 5.2 µM
N#Cc1ccc(C2CCN(CC3CCCCC3)CC2)cc1.O=C(O)C(F)(F)F [Molecule 4PP-30, 4-[1-(Cyclohexylmethyl)-4-piperidyl]benzonitrile; 2,2,2-trifluoroacetic acid] | > 20 | inactive | 
CC(C)(C)CC(C)(C)N1CCC(c2ccccc2)CC1 [Molecule 4PP-44, 4-Phenyl-1-(1,1,3,3-tetramethyl-butyl)-piperidine] | 5.2 ± 5 (≈ 1.42 µg/mL) |  | IC90 (Mycobacterium tuberculosis): 5.2 µM; MIC [2]: 5.2 µM (≈ 1.42 µg/mL)
CC(C)(C)CC(C)(C)N1CCN(c2ccccc2)CC1 [Molecule 4PP-50, 1-Phenyl-4-(2,4,4-trimethylpentan-2-yl)piperazine] | > 10 | loss in activity | 
CC(C)(C)CC(C)(C)N1CCN(c2ccc(C(C)(C)C)cc2)CC1 [Molecule 4PP-49, 1-(4-(t-Butyl)phenyl)-4-(2,4,4-trimethylpentan-2-yl)piperazine] | > 5 | loss in activity | 
CC(=O)C1(c2ccccc2)CCN(CC2CCCCC2)CC1 [Molecule 4PP-36, 1-[1-(Cyclohexylmethyl)-4-phenyl-4-piperidyl]ethanone] | > 20 |  | 
